Data taken from patent publication US20210238197A1, “NOVEL OXOQUINOLIZINE COMPOUNDS FOR THE TREATMENT AND PROPHYLAXIS OF BACTERIAL INFECTION” (Hoffmann-La Roche Inc., priority 2018, published 2021).
Converted amounts (≈) assume the structure as drawn. Like-named read-outs stand apart in the source and are kept apart here.

Legend:
S. aureus (ATCC29213) = test: 50% growth inhibitory concentration (IC50) determination assay, S. aureus; type: cell-based; details: Staphylococcus aureus, ATCC29213; Iso-Sensitest broth, growth by OD 600 nm over 16 h; <0.098 = detection limit
Method: (§1) The in vitro antimicrobial activity of the compounds against S. aureus (ATCC29213), K. pneumoniae (ATCC10031), and A. baumannii (ATCC17978), was determined according to the following procedure: The assay used a 10-points Iso-Sensitest broth medium to measure quantitatively the in vitro activity of the compounds against S. aureus ATCC29213, K. pneumoniae ATCC 10031, and A. baumannii ATCC17978. Stock compounds in DMSO were serially two-fold diluted (range from 50 to 0.097 μM final concentration) in 384 wells microtiter plates and inoculated with 49 μL the bacterial suspension in Iso-Sensitest broth medium to have a final cell concentration of ˜5×10^5 CFU/mL in a final volume/well of 50 μL/well. Microtiter plates were incubated at 35±2° C. Bacterial cell growth was determined with the measurement of optical density at λ=600 nm each 20 minutes over a time course of 16 h.

[1] = test system: K. pneumoniae (ATCC10031); test: 50% growth inhibitory concentration (IC50) determination assay, K. pneumoniae; type: cell-based; details: Klebsiella pneumoniae, ATCC10031; Iso-Sensitest broth, growth by OD 600 nm over 16 h; <0.098 = detection limit
Method: as §1

A. baumannii (ATCC17978) = test: 50% growth inhibitory concentration (IC50) determination assay, A. baumannii; type: cell-based; details: Acinetobacter baumannii, ATCC17978; Iso-Sensitest broth, growth by OD 600 nm over 16 h; <0.098 = detection limit
Method: as §1

[2] = test system: multiple species and strains; test: microbe, parasite or virus in culture; set-up: MIC S9 / MIC S7 / MIC S11 / MIC S8 / MIC S10: unit not given beside the values; details: for MIC S9: E. coli ATCC 35218
Method: The MIC of antibacterial compounds against multiple species and strains was determined using the broth microdilution method according to M07-A10 Clinical and Laboratory Standards Institute (CLSI) guidelines (CLSI (2015) Methods for dilution antimicrobial susceptibility tests for bacteria that grow aerobically; Approved Standard, Tenth Edition. CLSI Document M7-A10 (ISBN 1-56238-987-4). Wayne, Pa.: Clinical and Laboratory Standards Institute, 19087, USA.). In short, bacterial strain preparation was performed on D1 and D2. […] 5-10 well-isolated colonies of similar morphology were selected and re-streaked onto fresh agar plates using sterile loops and incubated for 20-24 hr at 35±2° C. Bacterial strains were subcultured two times to ensure fresh inoculums for MIC screening. […] Alternatively, 1-2 colonies were transferred into 500 μL of saline and OD600 was adjusted to ˜0.1 using an OD meter. Bacterial inoculum was diluted by 1:280 for Gram-positive strains and 1:400 for Gram-negative strains into corresponding medium broth (CAMHB, CAMHB+3% lysed horse blood, HTM) (e.g. 35.6 μL of inoculum into 10 mL of CAMHB or 25 μL of inoculum into 10 mL of CAMHB). For compound plate, the compound stock solutions were prepared in 100% DMSO on the day of MIC screening and used immediately. Compound stock concentration=[(highest testing concentration)×100 μL/2 μL] (e.g. if the required highest testing concentration is 64 μg/mL in assay plates, stock concentration=64 μg/mL×100 μL/2 μL=3.2 mg/mL). […] 1 μL of each well was transferred in a new MTP, which served as the test plate by subsequent inoculation. The bacterial suspension prepared above is dispensed at 98 μL/well within 15 minutes after preparation. Negative controls (lack of bacterial cells) and growth control wells (lack of compound) were included in all plates. MTPs were incubated for 18-24 hours at 35±2° C. in ambient air. The MIC was recorded and CFUs were calculated on Day 4. The assay plate was placed on the top of MIC reader, and the magnification mirror was adjusted to read each wells, recording growth status as raw data. Photo images of each assay plates were recorded using Q Count 530 (Spiral Biotech). The MIC value of each compound, expressed as μg/mL, was determined as the lowest concentration required for complete growth inhibition (no visible growth).

[3] = Acinetobacter baumannii, ATCC19606, read-out: MIC S1, A. baumannii ATCC 19606
[4] = Acinetobacter baumannii, ATCC51432, read-out: MIC S2, A. baumannii ATCC 51432
[5] = Acinetobacter baumannii, ATCCBAA747, read-out: MIC S3, A. baumannii ATCC BAA-747
[6] = Escherichia coli, ATCC25922, read-out: MIC S11, E. coli ATCC 25922
[7] = Escherichia coli, ATCCBAA2340, read-out: MIC S10, E. coli ATCC BAA-2340
[8] = Klebsiella pneumoniae, ATCC10031, read-out: MIC S4, K. pneumoniae ATCC 10031
[9] = Klebsiella pneumoniae, ATCC700603, read-out: MIC S5, K. pneumoniae ATCC 700603
[10] = Klebsiella pneumoniae, ATCCBAA2146, read-out: MIC S6, K. pneumoniae ATCC BAA-2146
[11] = Pseudomonas aeruginosa, ATCC27853, read-out: MIC S7, P. aeruginosa ATCC 27853
[12] = Pseudomonas aeruginosa, ATCCBAA2113, read-out: MIC S8, P. aeruginosa ATCC BAA-2113

| SMILES | IC50 (S. aureus (ATCC29213)) [µM] | IC50 [1] [µM] | IC50 (A. baumannii (ATCC17978)) [µM] | MIC [2, 3] [mg/L] | MIC [2, 4] [mg/L] | MIC [2, 5] [mg/L] | MIC S9 [2] | MIC [2, 6] [mg/L] | MIC [2, 7] [mg/L] | MIC [2, 8] [mg/L] | MIC [2, 9] [mg/L] | MIC [2, 10] [mg/L] | MIC [2, 11] [mg/L] | MIC [2, 12] [mg/L] |
| --- | --- | --- | --- | --- | --- | --- | --- | --- | --- | --- | --- | --- | --- | --- |
| CNc1cc(F)c(Cl)c2c1[nH]c1ncc(-c3ccc4ccc(C(=O)O)c(=O)n4c3)c(N3CC[C@H]4CN(C)C[C@H]43)c12 [Example 1.07, 7-(5-chloro-6-fluoro-8-(methylamino)-4-((3aS,6aS)-5-methyl-2,3,3a,4,6,6a-hexahydropyrrolo[2,3-c]pyrrol-1-yl)-9H-pyrido[2,3-b]indol-3-yl)-4-oxo-4H-quinolizine-3-carboxylic acid] | < 0.098 | < 0.098 | < 0.098 | 0.066 (≈ 0.118 µM) | 0.066 (≈ 0.118 µM) | 0.263 (≈ 0.469 µM) | 0.132 | 0.049 (≈ 0.0873 µM) | 0.132 (≈ 0.235 µM) | 0.033 (≈ 0.0588 µM) | 1.05 (≈ 1.88 µM) | 0.527 (≈ 0.939 µM) | 0.527 (≈ 0.939 µM) | 8.44 (≈ 15 µM) |
| CNc1cc(F)c(Cl)c2c1[nH]c1ncc(-c3ccc4ccc(C(=O)O)c(=O)n4c3)c(N3C[C@H]4CC[C@@H](N(C)C)[C@H]4C3)c12 [Example 1.08, 7-[4-[cis-(4R)-4-(dimethylamino)-3,3a,4,5,6,6a-hexahydro-1H-cyclopenta[c]pyrrol-2-yl]-5-chloro-6-fluoro-8-(methylamino)-9H-pyrido[2,3-b]indol-3-yl]-4-oxo-quinolizine-3-carboxylic acid] | < 0.098 | < 0.098 | < 0.098 | 0.274 (≈ 0.465 µM) | 0.274 (≈ 0.465 µM) | 0.548 (≈ 0.93 µM) | 0.548 | 0.206 (≈ 0.35 µM) | 0.548 (≈ 0.93 µM) | 0.069 (≈ 0.117 µM) | 4.39 (≈ 7.46 µM) | 2.2 (≈ 3.73 µM) | 2.2 (≈ 3.73 µM) | 4.39 (≈ 7.46 µM) |
| CNc1cc(F)c(F)c2c1[nH]c1ncc(-c3ccc4ccc(C(=O)O)c(=O)n4c3)c(N3C[C@H]4CCN(C)[C@H]4C3)c12 [Example 3.03A, 7-[4-[(3aR,6aR)-1-methyl-2,3,3a,4,6,6a-hexahydropyrrolo[3,4-b]pyrrol-5-yl]-5,6-difluoro-8-(methylamino)-9H-pyrido[2,3-b]indol-3-yl]-4-oxo-quinolizine-3-carboxylic acid] | < 0.098 | < 0.098 | < 0.098 | 0.106 (≈ 0.195 µM) | 0.212 (≈ 0.389 µM) | 0.212 (≈ 0.389 µM) | 0.425 | 0.08 (≈ 0.147 µM) | 0.425 (≈ 0.78 µM) | 0.027 (≈ 0.0496 µM) | 3.4 (≈ 6.25 µM) | 1.7 (≈ 3.13 µM) | 0.85 (≈ 1.56 µM) | 3.4 (≈ 6.25 µM) |
| CNc1cc(F)c(F)c2c1[nH]c1ncc(-c3ccc4ccc(C(=O)O)c(=O)n4c3)c(N3CC[C@H]4CCN(C)[C@H]4C3)c12 [Example 3.04A, 7-[4-[(3aR,7aR)-1-methyl-3,3a,4,5,7,7a-hexahydro-2H-pyrrolo[2,3-c]pyridin-6-yl]-5,6-difluoro-8-(methylamino)-9H-pyrido[2,3-b]indol-3-yl]-4-oxo-quinolizine-3-carboxylic acid] | < 0.098 | < 0.098 | < 0.098 | 0.218 (≈ 0.39 µM) | 0.218 (≈ 0.39 µM) | 0.218 (≈ 0.39 µM) | 0.218 | 0.082 (≈ 0.147 µM) | 0.218 (≈ 0.39 µM) | 0.027 (≈ 0.0483 µM) | 1.75 (≈ 3.13 µM) | 1.75 (≈ 3.13 µM) | 0.436 (≈ 0.781 µM) | 3.49 (≈ 6.25 µM) |
